Laboratory results reported in patent US20070275960A1, “Phenyl and pyridyl compounds for inflammation and immune-related uses” (Synta Pharmaceuticals Corp., priority 2006, published 2007).
Structures can show the parent of a compound that is named as a salt.

Test system: IL-2 production
Assay: Inhibition of IL-2 production in PHA-activated Jurkat cells (ELISA)
Assay type: cell-based
Details: PHA 2.5 μg/mL, 20 hours at 37° C., IL-2 by ELISA
Experimental: Jurkat cells were placed in a 96 well plate (0.5 million cells per well in 1% FBS medium) then a test compound of this invention was added at different concentrations. After 10 minutes, the cells were activated with PHA (final concentration 2.5 μg/mL) and incubated for 20 hours at 37° C. under CO2. The final volume was 200 μL. Following incubation, the cells were centrifuged and the supernatants collected and stored at −70° C. prior to assaying for IL-2 production. A commercial ELISA kit (IL-2 Eli-pair, Diaclone Research, Besancon, France) was used to detect production of IL-2, from which dose response curves were obtained. The IC50 value was calculated as the concentration at which 50% of maximum IL-2 production after stimulation was inhibited versus a non-stimulation control.

| IC50 (Homo sapiens, Jurkat, 20 h) [nM] | Compound | further results |
| --- | --- | --- |
|  | Cc1cnccc1C(=O)Nc1ccc(-c2sc(-c3ccno3)cc2C)cc1 [Compound 95, 3-Methyl-N-[4-(3-methyl-5-isoxazol-5-yl-thiophen-2-yl)-phenyl]-isonicotinamide, hydrochloride] | IC50 (hydrochloride): 4.4 nM |
| 9.3 | Cc1cc(-c2cncnc2)sc1-c1ccc(NC(=O)c2snnc2C)cc1 [Compound 98, 4-Methyl-[1,2,3]thiadiazole-5-carboxylic acid [4-(3-methyl-5-pyrimidin-5-yl-thiophen-2-yl)-phenyl]-amide] |  |
| 4.8 | Cc1cc(-c2cnco2)sc1-c1ccc(NC(=O)c2cccn2C)cc1 [Compound 116, 1-Methyl-1H-pyrrol-2-carboxylic acid [4-(3-methyl-5-oxazol-5-yl-thiophen-2-yl)-phenyl]-amide] |  |
|  | Cc1cnccc1C(=O)Nc1ccc(-c2sc(-c3ncco3)cc2C)cc1 [Compound 109, 3-Methyl-N-[4-(3-methyl-5-oxazol-2-yl-thiophen-2-yl)-phenyl]-isonicotinamide] | IC50: 2.7 nM |
| 11 | O=C(Nc1ccc(-c2sc(-c3ccno3)cc2Cl)cc1)c1ccncc1F [Compound 114, 3-Fluoro-N-[4-(3-chloro-5-isoxazol-5-yl-thiophen-2-yl)-phenyl]-isonicotinamide] |  |
| 48.8 | Cc1cc[nH]c1C(=O)Nc1ccc(-c2sc(-c3ccno3)cc2C)cc1 [Compound 117, 3-Methyl-1H-pyrrol-2-carboxylic acid [4-(3-methyl-5-isoxazol-5-yl-thiophen-2-yl)-phenyl]-amide] |  |
| 7.5 | Cc1cc(-c2cnco2)sc1-c1ccc(NC(=O)c2scnc2Cl)cc1 [Compound 110, 4-Chloro-thiazol-5-carboxylic acid [4-(3-methyl-5-oxazol-5-yl-thiophen-2-yl)-phenyl]-amide] |  |
